Values of other authors, collected in US20220323445A1, “REDUCING IMMUNOGENICITY TO PEGLOTICASE” (Horizon Therapeutics Ireland DAC, priority 2020, published 2022).

What was measured:
[1] = patients treated with allopurinol; cited from earlier work
[2] = prophylaxis of gout; cited from earlier work

Row | SMILES | patients who develop allergic reactions [1] | severe hypersensitivity syndrome [1] | pharyngolaryngeal pain [2] [%]
1 | Oc1ncnc2[nH]ncc12 [allopurinol] | Approximately 2% | about 0.4% | 
2 | COc1cc2c(c(OC)c1OC)-c1ccc(OC)c(=O)cc1[C@@H](NC(C)=O)CC2 [colchicine] |  |  | 3
